Test results from PubChem BioAssay (NCI).
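Cultured in 96-well plates, cells were exposed to test compound for 48 hours across five concentrations. The concentration for full growth arrest is given as TGI.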

Legend:
Assay in all cases: NCI-60 cell line screen, 48 h
[1] = test system: SW-620 colon
[2] = test system: U251 CNS
[3] = test system: NCI-H23 lung
[4] = test system: ACHN renal
[5] = test system: K-562 leukemia
[6] = test system: UO-31 renal
[7] = test system: MOLT-4 leukemia
[8] = test system: CCRF-CEM leukemia
[9] = test system: CAKI-1 renal
[10] = test system: SN12C renal
[11] = test system: M14 melanoma
[12] = test system: A549 NSCLC
[13] = test system: OVCAR-5 ovarian
[14] = test system: NCI-H522 lung
[15] = test system: SNB-78 CNS
[16] = test system: DLD-1 colon
[17] = test system: UACC-62 melanoma
[18] = test system: SK-MEL-28 melanoma
[19] = test system: EKVX NSCLC
[20] = test system: MALME-3M melanoma
[21] = test system: SK-MEL-2 melanoma
[22] = test system: HOP-92 NSCLC
[23] = test system: SF-268 CNS
[24] = test system: A498 renal
[25] = test system: NCI-H460 lung
[26] = test system: 786-0 renal
[27] = test system: RPMI-8226 leukemia
[28] = test system: DMS 114 small cell lung
[29] = test system: KM20L2 colon
[30] = test system: COLO 205 colon
[31] = test system: SF-539 CNS
[32] = test system: SK-MEL-5 melanoma
[33] = test system: OVCAR-8 ovarian
[34] = test system: SR leukemia
[35] = test system: HOP-62 NSCLC
[36] = test system: XF 498 CNS
[37] = test system: OVCAR-3 ovarian
[38] = test system: HCT-116 colon
[39] = test system: DMS 273 small cell lung
[40] = test system: NCI-H226 lung
[41] = test system: M19-MEL melanoma
[42] = test system: SK-OV-3 ovarian
[43] = test system: KM12 colon
[44] = test system: HT29 colon
[45] = test system: RXF-631 renal
[46] = test system: LXFL 529 NSCLC
[47] = test system: HCT-15 colon
[48] = test system: IGROV1 ovarian
[49] = test system: SNB-19 CNS
[50] = test system: SNB-75 CNS
[51] = test system: TK-10 renal
[52] = test system: OVCAR-4 ovarian
[53] = test system: HL-60(TB) leukemia
[54] = test system: HCC-2998 colon
[55] = test system: RXF 393 renal
[56] = test system: LOX IMVI melanoma
[57] = test system: SF-295 CNS
[58] = test system: UACC-257 melanoma
[59] = test system: HOP-18 NSCLC

CCN(c1ccc(Br)cc1)c1c(Br)c(=O)nc2ccccn12
TGI [1]: > 100 µM | TGI [2]: > 100 µM | TGI [3]: > 100 µM | TGI [4]: > 100 µM | TGI [5]: > 100 µM | TGI [6]: > 100 µM | TGI [7]: > 100 µM | TGI [8]: > 100 µM | TGI [9]: > 100 µM | TGI [10]: > 100 µM | TGI [11]: > 100 µM | TGI [12]: > 100 µM | TGI [13]: > 100 µM | TGI [14]: > 100 µM | TGI [15]: > 100 µM | TGI [16]: > 100 µM | TGI [17]: > 100 µM | TGI [18]: > 100 µM | TGI [19]: > 100 µM | TGI [20]: > 100 µM | TGI [21]: > 100 µM | TGI [22]: > 100 µM | TGI [23]: > 100 µM | TGI [24]: > 100 µM | TGI [25]: > 100 µM | TGI [26]: > 100 µM | TGI [27]: > 100 µM | TGI [28]: > 100 µM | TGI [29]: > 100 µM | TGI [30]: > 100 µM | TGI [31]: > 100 µM | TGI [32]: > 100 µM | TGI [33]: > 100 µM | TGI [34]: > 100 µM | TGI [35]: > 100 µM | TGI [36]: > 100 µM | TGI [37]: > 100 µM | TGI [38]: > 100 µM | TGI [39]: > 100 µM | TGI [40]: > 100 µM | TGI [41]: > 100 µM | TGI [42]: > 100 µM | TGI [43]: > 100 µM | TGI [44]: > 100 µM | TGI [45]: > 100 µM | TGI [46]: > 100 µM | TGI [47]: > 100 µM | TGI [48]: > 100 µM | TGI [49]: > 100 µM | TGI [50]: > 100 µM | TGI [51]: > 100 µM

NC(N)=NNC(=O)CCCCCCCC(=O)NN=C(N)N
TGI [1]: 27.4 µM | TGI [2]: > 100 µM | TGI [3]: > 100 µM | TGI [4]: > 100 µM | TGI [5]: > 100 µM | TGI [6]: > 100 µM | TGI [8]: > 100 µM | TGI [9]: > 100 µM | TGI [52]: > 100 µM | TGI [53]: > 100 µM | TGI [10]: > 100 µM | TGI [11]: > 100 µM | TGI [12]: > 100 µM | TGI [13]: > 100 µM | TGI [15]: > 100 µM | TGI [16]: > 100 µM | TGI [17]: > 100 µM | TGI [54]: > 100 µM | TGI [18]: > 100 µM | TGI [19]: > 100 µM | TGI [20]: > 100 µM | TGI [55]: > 100 µM | TGI [21]: > 100 µM | TGI [23]: > 100 µM | TGI [24]: > 100 µM | TGI [25]: > 100 µM | TGI [26]: > 100 µM | TGI [28]: > 100 µM | TGI [29]: > 100 µM | TGI [30]: 35.4 µM | TGI [31]: > 100 µM | TGI [32]: > 100 µM | TGI [35]: > 100 µM | TGI [38]: > 100 µM | TGI [39]: > 100 µM | TGI [41]: > 100 µM | TGI [56]: > 100 µM | TGI [42]: > 100 µM | TGI [43]: > 100 µM | TGI [44]: > 100 µM | TGI [45]: > 100 µM | TGI [46]: > 100 µM | TGI [57]: > 100 µM | TGI [47]: 34.1 µM | TGI [48]: > 100 µM | TGI [49]: > 100 µM | TGI [58]: > 100 µM | TGI [51]: > 100 µM

CCCCOP1(=O)C=C(C)C(=C(Cl)Cl)C(C)=C1 (stereo unspecified)
TGI [1]: > 40 µM | TGI [2]: 22.4 µM | TGI [3]: 34.7 µM | TGI [4]: 23.6 µM | TGI [59]: 82.2 µM | TGI [5]: > 100 µM | TGI [6]: 45.3 µM | TGI [7]: > 48.2 µM | TGI [8]: > 41.4 µM | TGI [9]: 27.8 µM | TGI [52]: > 91.1 µM | TGI [53]: 8.26 µM | TGI [10]: 34.8 µM | TGI [11]: 54.8 µM | TGI [12]: > 41.5 µM | TGI [13]: > 100 µM | TGI [14]: 11 µM | TGI [15]: 6.04 µM | TGI [16]: 38.9 µM | TGI [17]: 21.8 µM | TGI [54]: 52.3 µM | TGI [18]: 23.9 µM | TGI [19]: > 100 µM | TGI [20]: 31.6 µM | TGI [55]: 24.4 µM | TGI [21]: 5.11 µM | TGI [22]: 4.88 µM | TGI [23]: 27.3 µM | TGI [25]: 36 µM | TGI [26]: 53 µM | TGI [27]: > 24.4 µM | TGI [28]: 10.8 µM | TGI [29]: 5.13 µM | TGI [30]: 8.97 µM | TGI [31]: 83.3 µM | TGI [32]: > 32.9 µM | TGI [33]: > 54.2 µM | TGI [34]: 29.9 µM | TGI [35]: 32.7 µM | TGI [36]: 46.2 µM | TGI [37]: 39.1 µM | TGI [38]: 6.29 µM | TGI [39]: 16.6 µM | TGI [40]: 13 µM | TGI [41]: 32.9 µM | TGI [56]: 33.1 µM | TGI [42]: 49.8 µM | TGI [43]: 4.45 µM | TGI [44]: 29.9 µM | TGI [45]: 33.9 µM | TGI [57]: 25.9 µM | TGI [47]: 40.8 µM | TGI [48]: 49 µM | TGI [49]: > 77.9 µM | TGI [50]: > 94.4 µM | TGI [58]: 11.5 µM | TGI [51]: 44.1 µM
